Laboratory results as given in patent US20260315564A1, “THE USE OF TP3 (THYMOPENTIN ANALOG) BY INCREASING THE ACTIVITY AND NUMBER OF T-CELLS INVOLVED IN THE DEFENSE MECHANISM OF THE IMMUNE SYSTEM OF MAMMALS, FOR THE PREVENTION OR TREATMENT OF DISEASES TO EXTEND THE AVERAGE LIFESPAN” (priority 2023, published 2026).
Marks after values point to notes of the source that are not given here. Residues, ends and D or L forms follow the SMILES beside them.

Legend:
[1] = test system: Thy1+ cells in the spleens; test: Number of Thy1+ cells in spleens of Balb/c nu/nu mice after TP-fragment treatment; type: in vivo; details: ip, n = 8/group, control 5.4
Experimental: • D.1/Direct cytotoxicity test/for the detection of Thy, Lyt antigens (Fathman 1979, in Immunol Meth I. Eds. Lefkovits, Pernis, Acad Press, New York, pp. 212-213.) was used. Subpopulation ratios were determined from bone marrow cells, thymus, and spleen cells isolated from the lymphatic organs of mice. The cell suspensions (1.087-1.088 g/cm3) were centrifuged ona density gradient (2000 rpm, 20 minutes), and the cells were washed 3× with RPMI1640 medium containing 0.3% BSA, then adjusted to 107/ml. Thyl, Lyt 1, Lyt2 monoclonal antibodies (McAb/Ando I. (ICRF Human Tumor Immunol. UCM Med Sch. London) were obtained. 25 μl McAb and 25 ul cell suspension were incubated (60′, 40C1), after centrifugation (1250 rpm 10′), the cells were resuspended with 40 μul of diluted (1:50) rabbit complement, then incubated (370C, 60′). The cell suspensions were stained with 1:5 dilution of Eosin Y (Jansen). the ratio of live to non-living cells was determined.
Mice were treated for 4 weeks 3 times a week (every other day) with TP fragments (10-9, 10-8, 10-7//10-3, 10-2, 10-1 M/animal ip. (Veys et al., 1983) at the end of the treatments ([…]), the mice were immunized (with 0.5 ml 1% BVVT suspension ip. The immune response was expressed in antibody titers as above).
Effects of inducing renewal of the immune system and increasing activity in Balb/c nude mice The nude mouse is genetically deficient in the thymus. The […] atrophies over time after hormonal follow-up in mice and humans. As a result, the strength of the lymphoid, and within that of the T cells, decreases. All this means a definitive decrease in antigen recognition capacity. The increasing number and activity of immune cells in the thymus of nude mice is increasing health and quality of life span.
The number of Thy1+ cells in the spleens of Balb/c nu/nu mice after TP-fragment treatment (Thy 1+ marker-bearing cells in mice correspond to human lymphocytes)

[2] = test system: antibody production (IgM); test: Antibody production (IgM) in aged mice; type: in vivo, aged mice (Balb/c); details: second value column under head 'PFC IgM/logx^2'; aged mice 18 months old; n = 8/group; young control 84.1, aged 41.0
[3] = test system: healthy human lymphocytes; test: E-rosette test, ex vivo on healthy human cells; type: cell-based; design: effect ex vivo on healthy human cells (rosette-forming cells): unit not given here; details: for effect ex vivo on healthy human cells (rosette-forming cells): control 27.8 (TP5), 30.3 (TP3)
Experimental: Blood from donors was used for our experiments, where the blood samples were used either from animals or human donors. The heparinized blood samples were separated on a (FicolUromiro/Pharmacia-Bracco) gradient (Boyum 1968). 2×10^6 and 107 lymphocytes/ml cells were tested in E-rosette tests, the blood donors were the following animals: • Rat: Hannover Wistar (Richter) newborn rats were used to study the maturation of the immune response. As our mothers, 12 (maximum) randomized newborns were placed (21±10C, humidity: min. 65%) in a test litter. • Guinea pig: Donkin-Hartley (Lati) 250-300 g male animals were included for the DTH reaction test. • 2.3.3/Mice: Mouse strains of different genetic backgrounds were used: CFLP (outbred) from the Lati stock), Balb/c (inbred) and Balb/c nu/nu mice from the SzBC/Szeged stock.
In a preliminary study, the ED75 inhibitory effect of azathioprine was determined (Verhagen et al., 1980) and 500 μg/ml was used during the studies. An equal volume (200 μl) of activityinhibiting and isolated cell suspension and peptides ([…]) were measured. After 1 h (370C) incubation, the cell suspensions received 200 μl of 1% SRBC suspension and then centrifuged (90×g 5 minutes), 400 μl of the supernatant was aspirated.
The number of rosette-forming cells was counted. The activity was determined as percent recovery (R %). […]

Anti-BVVT-Ab (IgM) = test: Anti-BVVT-Ab titers (IgM) in newborn rats after single treatment (hemagglutination); type: in vivo, Hannover Wistar rats (newborn); details: 1x/ip, n = 12, control 6.3 (TP5), 5.2 (TP3)
Experimental: Rats (Hannover Wistar) were treated (i.p.) within 6-12 hours after birth. Treatments after birth in a single session or in another examination • on the 7th day after the first treatment; • another group was vaccinated 3 times a week after the first day of […]. treatment • in a subsequent group treated over three weeks (9× in total) (10-3,10-5,10-7//10-9, 10-11,10-12, 10-13 M/animal, i.p). • in the fourth test series, the animals were treated with TP fragments at 0, 1, 2, 4, or 5 days of age. The rats were unanimously immunized on the 14th day after birth (1% BVVT with 0.5 ml cell suspension, i.p.). Immune responses were measured after 7 days on day 21 of the experiment.
Rats (Hannover Wistar) were treated (i.p.) within 6-12 hours after birth. Treatments after birth in a single session or in another examination • on the 7th day after the first treatment; • another group was vaccinated 3 times a week after the first day of treatment. • in a subsequent group, the treatments took place over three weeks (9× in total) (10-3,10-5,10-7//10-9, 10-11,10-12,10-13 M/animal, i.p.). • in the fourth test series, the animals were treated with TP fragments at 0, 1, 2, 4, or 5 days of age. The rats were randomly immunized on the 14th day after birth (1% BVVT with 0.5 ml cell suspension, i.p.). Immune responses were measured after 7 days on day 21 of the experiment. 1.2. Determination of anti-BVVT Ab titers (from rat blood samples ex vivo) • with the haemagglutination method (Takátsy and Fürész, 1955) on 96-well plates (Flow). 50 ul of 0.9% NaCl solution was added to each well. The sera (50 μl) were diluted by half dilution in 12 steps, mixed with 25 pμl 2% BVVT cell suspension, and incubated (1 hour at 37 °C). The hemagglutination titers of the sera are determined. Values expressed in logarithmic values refer to total agglutination.

T cells = details: Schlesinger et al. 1978, in words; cited from earlier work

CC(C)[C@H](NC(=O)[C@H](CC(=O)O)NC(=O)[C@H](CCCCN)NC(=O)[C@@H](N)CCCN=C(N)N)C(=O)N[C@@H](Cc1ccc(O)cc1)C(=O)O [TP5] (H-RKDVY-OH)
number of Thy1+ cells in spleen ([1]; 10^-1 M/mice): 131* | number of Thy1+ cells in spleen ([1]; 10^-2 M/mice): 129** | number of Thy1+ cells in spleen ([1]; 10^-3 M/mice): 94* | number of Thy1+ cells in spleen ([1]; 10^-7 M/mice): 125** | number of Thy1+ cells in spleen ([1]; 10^-8 M/mice): 79* | number of Thy1+ cells in spleen ([1]; 10^-9 M/mice): 9.5 | IgM/logx^2 [2]: 44.7 logx^2 | effect ex vivo on healthy human cells (rosette-forming cells) ([3]; 10^-5 mol/l): 26.9 | effect ex vivo on healthy human cells (rosette-forming cells) ([3]; 10^-6 mol/l): 24.4 | effect ex vivo on healthy human cells (rosette-forming cells) ([3]; 10^-7 mol/l): 29.4 | effect ex vivo on healthy human cells (rosette-forming cells) ([3]; 10^-8 mol/l): 27.1 | effect ex vivo on healthy human cells (rosette-forming cells) ([3]; 10^-9 mol/l): 26.1 | effect ex vivo on healthy human cells (rosette-forming cells) ([3]; 10^-11 mol/l): 25.5 | effect ex vivo on healthy human cells (rosette-forming cells) ([3]; 10^-12 mol/l): 28.4 | effect ex vivo on healthy human cells (rosette-forming cells) ([3]; 10^-13 mol/l): 25.9 | effect ex vivo on healthy human cells (rosette-forming cells) ([3]; 10^-14 mol/l): 26.1 | activity on lymphocytes from healthy individuals ([3]; in words): ineffective | Anti-BVVT-Ab titers (IgM) (Anti-BVVT-Ab (IgM); 10^-3 M/animal): 7.6 2 log | Anti-BVVT-Ab titers (IgM) (Anti-BVVT-Ab (IgM); 10^-4 M/animal): 8.1* 2 log | Anti-BVVT-Ab titers (IgM) (Anti-BVVT-Ab (IgM); 10^-5 M/animal): 8.6* 2 log | Anti-BVVT-Ab titers (IgM) (Anti-BVVT-Ab (IgM); 10^-6 M/animal): 8.5* 2 log | Anti-BVVT-Ab titers (IgM) (Anti-BVVT-Ab (IgM); 10^-9 M/animal): 8.0* 2 log | Anti-BVVT-Ab titers (IgM) (Anti-BVVT-Ab (IgM); 10^-11 M/animal): 7.7 2 log | Anti-BVVT-Ab titers (IgM) (Anti-BVVT-Ab (IgM); 10^-13 M/animal): 7.0 2 log | differentiation of T cells (T cells): induces the differentiation of T cells
